Laboratory results taken from paper PMC5129982, “Screen-identified selective inhibitor of lysine demethylase 5A blocks cancer cell growth and drug resistance” (Oncotarget, 2016).
pIC50: −log10 of the molar value. Like-named read-outs stand apart in the source and are kept apart here.

Key:
FLAG-KDM5A = target: T1, FLAG-KDM5A (Homo sapiens, UniProt P29375); experiment: AlphaScreen screen of 8,861 compounds for KDM5A inhibitors; type: biochemical; conditions: 20 μM compound, threshold ~30% inhibition
T1 construct: Sf21 insect cells were infected with baculovirus to express full-length FLAG-KDM5A; made in house; host or cells: Sf21 insect cells (baculovirus)
Source text: The screen (see schematic in Figure 2A) included 8,861 compounds from selected small molecule libraries, including drugs approved for use in the clinic and diverse collections of compounds representing broad pharmacophore diversity and bioavailability. […] An inhibition threshold of three standard deviations (about 30% inhibition) identified 257 compounds. A counter-screen was used to eliminate any compounds that interfered with the assay itself by detecting the luminescent signal in the presence of the compound and positive control H3K4me2 peptide. The counter-screen validated 170 compounds. We chose 48 compounds from this list for dose-response analysis, including 42 of the top 44 compounds with the highest potency at 20 μM and 6 compounds with drug-like structures.
8,861 compounds from the ChemBridge MW-Set, ChemBridge DIVERSet, MicroSource Gen-Plus, MicroSource Pure Natural Products, NIH Clinical Collection, and Enzo Epigenetics libraries were screened for inhibition of FLAG-KDM5A demethylase activity. Compounds were dissolved in DMSO and added at 20 μM to 384-well white plates (Corning 3574) containing 64 nM bio-H3K4me3 peptide in demethylase buffer prior to addition of 13 nM FLAG-KDM5A. Hits were selected at a threshold of three standard deviations (~30% inhibition). A counter-screen was performed with the hits to eliminate any non-specific compounds. For this, 20 μM compounds were added to 64 nM bio-H3K4me2 peptide in demethylase buffer with no enzyme. Any hits that interfered with the positive signal detection were eliminated. Dose-response curves were performed on selected hits using 0.1–11 μM of compound. Further validation of top hits was performed using 5 μM of each compound or a dose-response curve using 0.05–50 μM of the compound.

full-length FLAG-KDM5A = target: T2, full-length FLAG-KDM5A (Homo sapiens, UniProt P29375); experiment: AlphaScreen KDM5A demethylation assay; type: biochemical; conditions: for Km: cofactor of KDM5A demethylation, 24 nM FLAG-KDM5A, read-out: average apparent Km
T2 construct: Sf21 insect cells were infected with baculovirus to express full-length FLAG-KDM5A; made in house; host or cells: Sf21 insect cells (baculovirus)
Source text: AlphaScreen technology (PerkinElmer) was utilized to perform a screen for small molecule inhibitors of KDM5A. The assay was comprised of two steps, a demethylation reaction followed by detection of the product. A biotinylated H3K4me3 peptide was used as substrate in the demethylation reaction with KDM5A in the presence or absence of small molecule inhibitors. The presence of peptide product (H3K4me1/2) was detected using a product-specific antibody and beads. For this, acceptor beads coated in protein A bound to the antibody, which recognized the peptide product. Donor beads coated in streptavidin bound biotin on the peptide substrate. If the demethylation reaction occurred, the beads were in very close proximity and laser excitation of the donor beads at 680nm caused a transfer of energy in the form of reactive singlet oxygen, resulting in emission by the acceptor beads between 520–620 nm ([30, 31], Figure 1A). The luminescent signal detected was a proxy for the amount of demethylation that occurred.
Reactions were carried out for 1 hour, or were stopped by addition of 30 mM EDTA every 5 minutes for determining enzyme kinetics. Km values were calculated using the Michaelis-Menten non-linear regression analysis on GraphPad Prism 6.0 software. The concentration of DMSO in demethylation reactions was 0.05%. For reactions with catalase, catalase (Sigma C30) or an equal volume of dilution buffer was added to the peptide-containing buffer before addition of the demethylase. The final concentration of catalase in the reactions was 0.01 mg/ml.
(§1) The AlphaScreen general IgG (protein A) detection kit from PerkinElmer Life Sciences was used as described previously. The luminescence emission was recorded at 570 nm using the AlphaScreen optic module on a Pherastar (BMG Labtech) or Envision (PerkinElmer Life Sciences) microplate reader.
IC50 values were calculated by log transformation and non-linear regression log(inhibitor) versus response(three parameters) using Graphpad Prism 6.0 software.

[1] = target: T3, FLAG-KDM6B (1043-1682) (JMJD3) (Homo sapiens, UniProt O15054); experiment: AlphaScreen KDM6B demethylation assay; type: biochemical
T3 construct: FLAG-KDM6B (1043-1682) was purchased from BPS Bioscience (50115); FLAG (N); purchased BPS Bioscience 50115
Description: (§2) Histone demethylase assays were performed as described previously, with the exception of all enzyme reactions containing 125 μM α-KG. Enzymes were used at the following approximate concentrations in validation experiments, chosen based on their activity in AlphaScreen assays: 19 nM FLAG-KDM5A, 15 nM FLAG-KDM5B, 6 nM FLAG-KDM5C, 29 nM His-FLAG-KDM6A, and 16 nM FLAG-KDM6B. 24 nM FLAG-KDM5A was used for Km determination experiments. Reactions were carried out for 1 hour, or were stopped by addition of 30 mM EDTA every 5 minutes for determining enzyme kinetics. Km values were calculated using the Michaelis-Menten non-linear regression analysis on GraphPad Prism 6.0 software. The concentration of DMSO in demethylation reactions was 0.05%. For reactions with catalase, catalase (Sigma C30) or an equal volume of dilution buffer was added to the peptide-containing buffer before addition of the demethylase. The final concentration of catalase in the reactions was 0.01 mg/ml.
as §1

FLAG-KDM5C = target: T4, FLAG-KDM5C (Homo sapiens, UniProt P41229); experiment: AlphaScreen KDM5C demethylation assay; type: biochemical
T4 construct: Full-length FLAG-KDM5B, FLAG-KDM5C, and His-FLAG-KDM6A production was detailed previously; FLAG (N); made in house
Description: as §2, §1

[2] = tested on: H3K4 methylation in HeLa cells; experiment: Western blot of global H3K4 methylation, HeLa; type: cell-based, human; conditions: HeLa, 48 hr
Description: (§3) Cells were lysed as described previously. Histones were separated by centrifugation, resuspended in Laemmeli buffer, and sonicated. Protein concentration of cell lysates was measured by Bradford assay. Samples in Laemmeli buffer were boiled 10 minutes at 95°C and loaded onto 7% (whole cell lysates) or 18% (histones) SDS-PAGE gels. Membranes were blocked in 4% non-fat milk in Tris-buffered saline with 0.05% Tween (TBS-T) and incubated with primary antibodies in the same buffer or 5% bovine serum albumin in TBS-T overnight at 4°C. Membranes were incubated with secondary anti-rabbit or anti-mouse antibodies for one hour at room temperature. Blots were visualized by Thermo Scientific Pierce ECL Western Blotting Substrate (32106) or EMD Millipore Immobilon Western Chemiluminescent HRP Substrate (WBKLS0100) on film. Signal was quantified using ImageJ software.

FLAG-KDM5B = target: T5, FLAG-KDM5B (Homo sapiens, UniProt Q9UGL1); experiment: AlphaScreen KDM5B demethylation assay; type: biochemical
T5 construct: Full-length FLAG-KDM5B, FLAG-KDM5C, and His-FLAG-KDM6A production was detailed previously; FLAG (N); made in house
Description: as §2, §1

[3] = tested on: H3K4 methylation in MCF7 cells; experiment: Western blot of global H3K4 methylation, MCF7; type: cell-based, human; conditions: 48 hr
Description: as §3

His-FLAG-KDM6A (UTX) = target: T6, His-FLAG-KDM6A (UTX) (Homo sapiens, UniProt O15550); experiment: AlphaScreen KDM6A demethylation assay; type: biochemical
T6 construct: Full-length FLAG-KDM5B, FLAG-KDM5C, and His-FLAG-KDM6A production was detailed previously; His (N); FLAG (N); made in house
Description: as §2, §1

[4] = target: FLAG-tagged full-length KDM5A (lysine demethylase 5A) (UniProt P29375)
Chain of FLAG-tagged full-length KDM5A (lysine demethylase 5A) (P29375 whole entry): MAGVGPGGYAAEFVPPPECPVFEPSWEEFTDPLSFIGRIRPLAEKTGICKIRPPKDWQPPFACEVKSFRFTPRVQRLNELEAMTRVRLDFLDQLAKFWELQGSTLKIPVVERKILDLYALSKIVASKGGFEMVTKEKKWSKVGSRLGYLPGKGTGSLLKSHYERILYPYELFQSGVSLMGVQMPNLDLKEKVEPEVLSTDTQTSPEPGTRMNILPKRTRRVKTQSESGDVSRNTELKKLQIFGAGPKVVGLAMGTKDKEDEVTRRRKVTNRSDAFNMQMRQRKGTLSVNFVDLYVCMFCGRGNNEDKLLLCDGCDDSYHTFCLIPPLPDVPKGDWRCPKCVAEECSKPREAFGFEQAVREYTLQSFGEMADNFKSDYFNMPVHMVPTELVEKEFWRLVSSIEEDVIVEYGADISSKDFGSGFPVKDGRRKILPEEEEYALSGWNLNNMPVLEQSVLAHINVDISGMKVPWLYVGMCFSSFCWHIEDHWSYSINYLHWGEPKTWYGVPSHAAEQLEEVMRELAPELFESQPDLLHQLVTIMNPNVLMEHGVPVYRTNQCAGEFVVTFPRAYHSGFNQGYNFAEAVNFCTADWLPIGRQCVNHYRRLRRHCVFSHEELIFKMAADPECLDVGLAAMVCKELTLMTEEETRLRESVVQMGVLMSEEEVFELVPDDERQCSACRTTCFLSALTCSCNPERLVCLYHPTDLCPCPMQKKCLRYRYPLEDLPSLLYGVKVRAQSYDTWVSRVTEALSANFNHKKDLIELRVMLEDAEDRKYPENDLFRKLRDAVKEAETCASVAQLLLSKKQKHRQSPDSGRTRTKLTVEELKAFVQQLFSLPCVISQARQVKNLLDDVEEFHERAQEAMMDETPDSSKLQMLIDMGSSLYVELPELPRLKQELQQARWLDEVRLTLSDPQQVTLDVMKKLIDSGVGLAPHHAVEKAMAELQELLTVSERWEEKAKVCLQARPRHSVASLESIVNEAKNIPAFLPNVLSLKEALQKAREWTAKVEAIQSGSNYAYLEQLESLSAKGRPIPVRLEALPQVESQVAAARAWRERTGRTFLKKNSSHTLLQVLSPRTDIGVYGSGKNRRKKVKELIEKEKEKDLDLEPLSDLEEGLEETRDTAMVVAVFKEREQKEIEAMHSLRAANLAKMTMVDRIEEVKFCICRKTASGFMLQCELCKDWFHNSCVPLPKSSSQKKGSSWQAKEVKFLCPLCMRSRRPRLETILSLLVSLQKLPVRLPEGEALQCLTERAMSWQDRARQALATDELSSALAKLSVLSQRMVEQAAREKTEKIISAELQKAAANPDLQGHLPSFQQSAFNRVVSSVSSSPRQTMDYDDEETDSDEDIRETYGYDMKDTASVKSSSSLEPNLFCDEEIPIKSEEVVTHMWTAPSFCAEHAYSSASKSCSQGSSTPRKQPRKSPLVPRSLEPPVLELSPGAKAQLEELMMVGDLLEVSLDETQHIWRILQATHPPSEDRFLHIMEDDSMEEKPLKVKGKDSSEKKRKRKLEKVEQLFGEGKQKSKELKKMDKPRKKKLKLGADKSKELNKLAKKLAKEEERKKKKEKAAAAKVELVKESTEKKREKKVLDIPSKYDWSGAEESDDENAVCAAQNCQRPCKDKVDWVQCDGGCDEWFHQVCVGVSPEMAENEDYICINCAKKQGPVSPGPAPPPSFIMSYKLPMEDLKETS

T1 sequence (P29375 whole entry): as above
T2 sequence (P29375 whole entry): as above
T5 sequence (Q9UGL1 whole entry): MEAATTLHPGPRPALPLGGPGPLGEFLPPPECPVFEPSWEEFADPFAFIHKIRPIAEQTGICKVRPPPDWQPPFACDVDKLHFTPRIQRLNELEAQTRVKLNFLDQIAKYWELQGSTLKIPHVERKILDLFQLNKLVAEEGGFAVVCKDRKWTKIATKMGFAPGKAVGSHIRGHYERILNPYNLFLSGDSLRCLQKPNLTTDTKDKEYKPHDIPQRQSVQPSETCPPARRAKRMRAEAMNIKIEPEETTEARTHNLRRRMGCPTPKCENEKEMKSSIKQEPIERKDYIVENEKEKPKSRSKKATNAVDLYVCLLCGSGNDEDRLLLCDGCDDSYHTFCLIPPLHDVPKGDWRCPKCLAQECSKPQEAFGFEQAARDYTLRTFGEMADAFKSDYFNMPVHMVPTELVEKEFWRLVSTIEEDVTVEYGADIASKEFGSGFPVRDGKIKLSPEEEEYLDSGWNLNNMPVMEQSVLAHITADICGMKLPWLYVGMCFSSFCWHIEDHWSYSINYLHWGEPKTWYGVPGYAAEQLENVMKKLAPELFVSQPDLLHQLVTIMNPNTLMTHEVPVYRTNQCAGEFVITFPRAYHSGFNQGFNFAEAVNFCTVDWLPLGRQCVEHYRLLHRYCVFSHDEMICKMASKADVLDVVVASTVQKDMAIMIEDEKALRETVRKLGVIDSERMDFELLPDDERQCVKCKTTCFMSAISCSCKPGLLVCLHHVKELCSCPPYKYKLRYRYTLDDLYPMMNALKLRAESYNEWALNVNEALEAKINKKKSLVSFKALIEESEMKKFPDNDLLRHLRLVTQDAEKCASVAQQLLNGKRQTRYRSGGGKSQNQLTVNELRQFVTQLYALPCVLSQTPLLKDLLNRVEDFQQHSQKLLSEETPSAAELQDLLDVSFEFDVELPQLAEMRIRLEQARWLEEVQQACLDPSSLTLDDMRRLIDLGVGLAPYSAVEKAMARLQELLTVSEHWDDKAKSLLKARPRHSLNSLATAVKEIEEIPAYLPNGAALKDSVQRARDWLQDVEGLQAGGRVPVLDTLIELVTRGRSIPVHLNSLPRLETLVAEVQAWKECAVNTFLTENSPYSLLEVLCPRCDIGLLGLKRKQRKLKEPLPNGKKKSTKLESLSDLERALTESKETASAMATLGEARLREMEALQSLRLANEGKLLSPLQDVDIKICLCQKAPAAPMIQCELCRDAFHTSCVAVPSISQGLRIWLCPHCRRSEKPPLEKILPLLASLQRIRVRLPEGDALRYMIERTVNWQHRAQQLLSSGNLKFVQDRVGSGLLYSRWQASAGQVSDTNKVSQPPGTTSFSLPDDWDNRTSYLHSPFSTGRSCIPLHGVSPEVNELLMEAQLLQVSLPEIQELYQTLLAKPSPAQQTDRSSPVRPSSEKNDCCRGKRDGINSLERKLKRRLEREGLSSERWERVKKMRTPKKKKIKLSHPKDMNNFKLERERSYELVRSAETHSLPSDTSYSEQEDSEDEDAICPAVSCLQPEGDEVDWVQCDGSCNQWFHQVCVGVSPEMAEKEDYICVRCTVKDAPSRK
T4 sequence (P41229 whole entry): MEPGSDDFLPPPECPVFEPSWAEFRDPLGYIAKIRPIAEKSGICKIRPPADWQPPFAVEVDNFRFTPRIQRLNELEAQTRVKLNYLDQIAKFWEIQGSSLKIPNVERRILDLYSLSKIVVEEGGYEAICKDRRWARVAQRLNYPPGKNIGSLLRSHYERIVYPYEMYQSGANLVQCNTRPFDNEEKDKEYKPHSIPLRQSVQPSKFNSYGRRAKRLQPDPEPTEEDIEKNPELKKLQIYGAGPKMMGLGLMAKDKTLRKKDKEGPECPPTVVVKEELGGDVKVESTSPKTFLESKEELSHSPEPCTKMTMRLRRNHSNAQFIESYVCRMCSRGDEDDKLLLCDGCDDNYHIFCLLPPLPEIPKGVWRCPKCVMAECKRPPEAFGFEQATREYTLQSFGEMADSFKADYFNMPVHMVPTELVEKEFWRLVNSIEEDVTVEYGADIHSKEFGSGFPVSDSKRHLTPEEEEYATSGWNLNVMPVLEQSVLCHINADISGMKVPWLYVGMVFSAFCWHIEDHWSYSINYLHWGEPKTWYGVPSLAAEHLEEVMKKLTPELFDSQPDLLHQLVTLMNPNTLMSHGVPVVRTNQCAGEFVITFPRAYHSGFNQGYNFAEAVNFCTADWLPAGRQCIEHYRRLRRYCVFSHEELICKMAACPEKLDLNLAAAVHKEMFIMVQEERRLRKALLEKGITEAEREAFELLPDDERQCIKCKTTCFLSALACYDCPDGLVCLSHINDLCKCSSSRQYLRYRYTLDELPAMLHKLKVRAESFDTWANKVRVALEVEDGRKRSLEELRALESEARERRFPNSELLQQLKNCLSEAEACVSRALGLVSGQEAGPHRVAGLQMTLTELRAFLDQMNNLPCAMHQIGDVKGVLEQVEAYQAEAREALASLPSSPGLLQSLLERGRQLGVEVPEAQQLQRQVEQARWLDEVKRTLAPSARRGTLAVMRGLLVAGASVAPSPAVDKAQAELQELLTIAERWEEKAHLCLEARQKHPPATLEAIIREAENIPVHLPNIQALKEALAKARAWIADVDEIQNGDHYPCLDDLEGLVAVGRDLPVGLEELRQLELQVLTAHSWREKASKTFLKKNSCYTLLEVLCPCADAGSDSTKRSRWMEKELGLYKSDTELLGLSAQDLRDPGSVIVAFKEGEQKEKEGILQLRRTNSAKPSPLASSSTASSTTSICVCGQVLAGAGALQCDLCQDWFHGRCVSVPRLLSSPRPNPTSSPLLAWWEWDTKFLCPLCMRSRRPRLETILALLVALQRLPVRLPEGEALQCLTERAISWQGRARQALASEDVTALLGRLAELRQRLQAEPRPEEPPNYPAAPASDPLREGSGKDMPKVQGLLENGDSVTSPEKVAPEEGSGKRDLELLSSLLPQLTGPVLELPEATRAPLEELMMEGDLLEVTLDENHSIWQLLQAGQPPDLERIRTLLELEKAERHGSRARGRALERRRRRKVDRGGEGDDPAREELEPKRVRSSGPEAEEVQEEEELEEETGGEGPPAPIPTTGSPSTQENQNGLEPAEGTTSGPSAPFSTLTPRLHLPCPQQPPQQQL

Q: Which “outcome in the KDM5A inhibitor screen” value (FLAG-KDM5A) does the source give for `O=C(O)c1ccnc(C(=O)O)c1` [2,4-PDCA, 2,4-pyridinedicarboxylic acid] here?
A: The value was “active hits”.

Q: Which Km (full-length FLAG-KDM5A) does the source give for `[Fe+2]` [Fe(II)] here?
A: Its Km is about 3 µM.

Q: Which “concentration above which FLAG-KDM5A showed little activity” value (full-length FLAG-KDM5A; salt titration in the demethylation reaction) does the source give for `[Cl-].[Na+]` [NaCl, sodium chloride] here?
A: The value was “more than 50 mM”.

Q: `Cc1ccc(-n2sc3ccccc3c2=O)cc1` [PBIT, 2-4(4-methylphenyl)-1,2-benzisothiazol-3(2H)-one] was tested. Which “outcome in the KDM5A inhibitor screen” value (FLAG-KDM5A) did it give?
A: The value was “active hits”.

Q: How did the pIC50 [1] turn out when `C=CCn1c(S)nnc1CNC(=O)c1cccc(C)c1` [YUKA2, N-[(4-allyl-5-mercapto-4H-1,2,4-triazol-3-yl)methyl]-3-methylbenzamide] was run?
A: The pIC50 was under 4.30.

Q: What about the “fold less active against KDM5C (than KDM5A)” value (FLAG-KDM5C) of the same compound?
A: Its value is about 5 fold.

Q: What about the pIC50 (FLAG-KDM5C; AlphaScreen) of the same compound?
A: Its pIC50 is 5.18.

Q: What about the “H3K4me3 Fold (H3K4me3/Total H3, normalized to DMSO)” value ([2]; 50 μM) of the same compound?
A: Its value is 1.6.

Q: And the “H3K4me3 Fold (H3K4me3/Total H3, normalized to DMSO)” value ([2]; 100 μM)?
A: Its value is 1.7.

Q: And the pIC50 (FLAG-KDM5B; AlphaScreen)?
A: Its pIC50 is under 4.30.

Q: And the “activity against KDM5B” value (FLAG-KDM5B; at 50 μM)?
A: Its value is “no activity”.

Q: And the “H3K4me3 Fold (H3K4me3/Total H3, normalized to DMSO)” value ([3]; MCF7, 50 μM)?
A: Its value is 0.9.

Q: And the “H3K4me3 Fold (H3K4me3/Total H3, normalized to DMSO)” value ([3]; MCF7, 100 μM)?
A: Its value is 0.8.

Q: And the pIC50 (His-FLAG-KDM6A (UTX))?
A: The pIC50 was under 4.30.

Q: And the “mode of inhibition with respect to Fe(II)” value (full-length FLAG-KDM5A)?
A: The value was “uncompetitive with respect to Fe(II)”.

Q: And the “change of IC50 over a 16-fold range of α-KG concentrations” value (full-length FLAG-KDM5A; 150 nM H3K4me3 peptide, 50 μM Fe(II))?
A: The value was “did not change significantly”.

Q: And the “enzyme inhibition at low Fe(II)” value (full-length FLAG-KDM5A; 5 μM Fe(II))?
A: Its value is “too weak to generate robust IC50 curves”.

Q: What about the “effect of catalase on inhibitory potency against KDM5A” value (full-length FLAG-KDM5A; 0.01 mg/ml catalase) of the same compound?
A: Its value is “did not affect”.

Q: And the pIC50 (full-length FLAG-KDM5A; AlphaScreen, 1 hour reaction, 0.05–50 μM compound)?
A: Its pIC50 is 5.88.

Q: How did the “concentration above which FLAG-KDM5A was sensitive” value (full-length FLAG-KDM5A; titration in the demethylation reaction) turn out when `[Cl-].[Cl-].[Zn+2]` [ZnCl2, Zinc chloride] was run?
A: The value was “above 2 μM”.

Q: With `O=C(O)/C=C/c1ccc(O)c(O)c1` [caffeic acid] as the compound, how does the “outcome in the KDM5A inhibitor screen” value (FLAG-KDM5A) read?
A: Its value is “active hits”.

Q: `C[C@@](Cc1ccc(O)c(O)c1)(NN)C(=O)O` [carbidopa] was tested. Which “outcome in the KDM5A inhibitor screen” value (FLAG-KDM5A) did it give?
A: The value was “active hits”.

Q: `N[C@@H](Cc1ccc(O)c(O)c1)C(=O)O` [levodopa] was tested. Which “outcome in the KDM5A inhibitor screen” value (FLAG-KDM5A) did it give?
A: The value was “active hits”.

Q: With `C[C@](N)(Cc1ccc(O)c(O)c1)C(=O)O` [methyldopa] as the compound, how does the “outcome in the KDM5A inhibitor screen” value (FLAG-KDM5A) read?
A: The value was “active hits”.

Q: How did the Km (full-length FLAG-KDM5A; listed as α-KG) turn out when `O=C(O)CCC(=O)C(=O)O` [α-ketoglutarate] was run?
A: Its Km is about 7 µM.

Q: How did the average apparent Km of the H3K4me3 peptide: rate of the demethylation reaction over increasing peptide concentrations, product detected by AlphaScreen (24 nM FLAG-KDM5A) [4] turn out when biotinylated H3K4me3 peptide was run?
A: Its average apparent Km of the H3K4me3 peptide: rate of the demethylation reaction over increasing peptide concentrations, product detected by AlphaScreen (24 nM FLAG-KDM5A) is 28 nM.
